25 compounds from patent US20070197512A1, “Carboxylic Acid Compounds and Use Thereof” (Japan Tobacco Inc., priority 2006, published 2007) can be followed below.

The target in one test is T1, human URAT1 (Homo sapiens, UniProt Q96S37).
T1 construct: Human URAT1 full length cDNA was subcloned to expression vector pcDNA3.1; expressed in transfected cells; host or cells: HEK293 cells (pcDNA3.1, geneticin-selected)
T1 sequence (Q96S37 1-553): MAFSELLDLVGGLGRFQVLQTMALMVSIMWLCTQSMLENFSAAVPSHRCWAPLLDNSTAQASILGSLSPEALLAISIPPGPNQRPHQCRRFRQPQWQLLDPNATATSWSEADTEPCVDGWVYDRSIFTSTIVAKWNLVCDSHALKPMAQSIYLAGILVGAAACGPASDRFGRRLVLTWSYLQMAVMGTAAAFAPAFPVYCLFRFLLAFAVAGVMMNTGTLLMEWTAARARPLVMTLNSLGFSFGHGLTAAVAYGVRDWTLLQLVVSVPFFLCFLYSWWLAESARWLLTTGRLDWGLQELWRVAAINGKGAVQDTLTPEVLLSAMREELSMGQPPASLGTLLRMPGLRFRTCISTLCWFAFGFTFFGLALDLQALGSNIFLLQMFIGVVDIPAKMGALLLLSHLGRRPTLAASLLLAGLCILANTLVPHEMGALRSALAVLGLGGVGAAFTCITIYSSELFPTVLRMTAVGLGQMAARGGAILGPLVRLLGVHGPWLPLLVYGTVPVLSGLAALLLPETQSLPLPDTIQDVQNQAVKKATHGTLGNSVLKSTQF
Kind of test: Uric acid transport inhibitory test using human URAT1-expressing cells. As to conditions: human URAT1-expressing HEK293 cells, 14C-uric acid 50 μM, uptake 5 min, room temperature; read-out: hURAT1 IC50. Type of test: cell-based. The source says:
Experimental Example 1 Uric Acid Transport Inhibitory Test Using Human URAT1-Expressing Cells
Human URAT1 full length cDNA was subcloned to expression vector pcDNA3.1 and human URAT1 gene was transfected into human embryonic kidney derived cell line (HEK293 cells) by liposome method using Lipofectamine2000. Simultaneously, HEK293 cells transfected with expression vector pcDNA3.1 alone (hereinafter mock cells) were also produced. HEK293 cells expressing human URAT1 gene or mock cells were selected with geneticin resistance as an index. The functional expression of human URAT1 gene was confirmed by a method similar to the following method, using ^14C-uric acid transport into the cells as an index.
Human URAT1-expressing HEK293 cells or mock cells were cultured in Dulbecco's modified Eagle's MEM medium (high glucose) containing 10% fetal bovine serum, 0.5 mg/mL geneticin sulfate, 100 units/mL penicillin and 100 μg/mL streptomycin under the conditions of 37° C. and 5% CO2 in an incubator. The cells were plated in a 96 well plate (poly-D-Lysine coated) at 1×10^5 cells/well and the following uric acid transport inhibitory test was performed 24 hr later. This test was performed at room temperature.
After the medium was removed by aspiration from each well, the cells were washed once with Hank's Balanced Salt Solution (HBSS) and preincubated with HBSS (100 μL/well) for 5 min. HBSS was aspirated and an assay buffer (wherein NaCl in the above-mentioned HBSS had been substituted with Na-gluconate) containing various concentrations of the Example compound and a radioactive ligand (14C-uric acid; final concentration 50 μM) was added to each well at 50 μL/well and an uptake reaction was carried out for 5 min. After the reaction, the cells were washed twice with ice-cold HBSS (150 μL/well), and Microscinti™ 20 (PerkinElmer) was added at 50 μL/well. The cells were lysed by stirring and the radioactivity of each well was measured by a liquid scintillation counter (TOP COUNT, Packard).
The uric acid transport rate (%) of the Example compound at each concentration was calculated relative to the radioactivity (difference in radioactivity between human URAT1-expressing HEK293 cells and mock cells without addition of Example compound (DMSO addition)) showing URAT1 specific uric acid transport as 100%, and the concentration (IC50) of the Example compound necessary for inhibiting the uric acid transport rate by 50% was determined. In Table 24-Table 27, “+++” means IC50 value of less than 300 nM, “++” means IC50 value of 300 nM to less than 3000 nM, and “+” means IC50 value of not less than 3000 nM.

For another test, the target named is T2, CYP2C9 (Homo sapiens, UniProt P11712).
T2 construct: Human liver microsome (20 mg protein/mL, 5 μL, Xenotech LLC, purchased from Lenexa Kans.); tissue Xenotech LLC; host or cells: human liver microsomes
T2 sequence (P11712 whole entry): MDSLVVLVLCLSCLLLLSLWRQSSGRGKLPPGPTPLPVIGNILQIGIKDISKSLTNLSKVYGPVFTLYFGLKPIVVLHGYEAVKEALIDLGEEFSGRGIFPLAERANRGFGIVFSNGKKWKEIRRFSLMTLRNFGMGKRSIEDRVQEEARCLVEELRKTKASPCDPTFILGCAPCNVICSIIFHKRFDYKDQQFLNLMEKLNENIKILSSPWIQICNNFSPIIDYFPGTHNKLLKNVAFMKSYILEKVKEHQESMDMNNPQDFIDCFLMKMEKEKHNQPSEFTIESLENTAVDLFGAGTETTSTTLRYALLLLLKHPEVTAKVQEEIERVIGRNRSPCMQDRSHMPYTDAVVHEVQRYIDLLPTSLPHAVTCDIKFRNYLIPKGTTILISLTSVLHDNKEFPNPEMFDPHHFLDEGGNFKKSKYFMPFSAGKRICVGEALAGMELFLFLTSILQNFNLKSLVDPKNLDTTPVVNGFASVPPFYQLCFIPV
As to the kind of experiment: CYP inhibitory test using human liver microsome. Type of test: in vitro ADME. As to conditions: model substrate diclofenac, 37° C., 10 min, read-out: CYP2C9 inhibition, IC50. How it is done:
Experimental Example 2 CYP Inhibitory Test Using Human Liver Microsome
Human liver microsome (20 mg protein/mL, 5 μL, Xenotech LLC, purchased from Lenexa Kans.) was suspended in 100 mM potassium phosphate buffer (70 μL, pH 7.4), mixed with a solution (0.5 μL) of the Example compound dissolved in DMSO and preincubated at 37° C. for 5 min. NADPH producing system coenzyme solution (β-nicotinamide adenine dinucleotide phosphate: 5.2 mM, D-glucose-6-phosphate: 13.2 mM, magnesium chloride: 13.2 mM, glucose-6-phosphate dehydrogenase: 1.8 U/mL) 25 μL, and a model substrate (CYP3A4: midazolam 1 mM, CYP2D6: bufuralol 1 mM, CYP2C9: diclofenac 2 mM) 0.5 μL dissolved in DMSO were added to start the reaction. After incubation at 37° C. for 10 min., acetonitrile (200 μL) containing an internal standard substance (propranolol 1 μM) was added and the mixture was centrifuged (room temperature, 3000 rpm, 20 min). The amount of the metabolite produced from each model substrate in the supernatant was measured by high performance liquid chromatography/mass spectrometry (LC/MS/MS) and each CYP enzyme activity was determined. The concentration showing 50% inhibition (IC50) was calculated relative to the enzyme activity without addition of Example compound (DMSO 0.5 μL added) as 100%.
As a comparative example, the CYP enzyme activity of the compound described in JP-A-3-135917 was examined by determining the IC50 value in the same manner as above.
Background: Liver microsomes are a subcellular fraction often used to study metabolism.

Consider `CC(C)[C@H]1Oc2c(Cl)cc(Cl)cc2N(CCC(=O)O)C1=O` [Example 108, 3-((R)-6,8-dichloro-2-isopropyl-3-oxo-2,3-dihydrobenzo[1,4]oxazin-4-yl)propionic acid], for which the half-inhibitory concentration (IC50) at human URAT1 is under 0.3 µM; on CYP2C9, over 50 µM.

For `Cc1c(Cl)cc2c(c1Cl)OC(C(C)C)C(=O)N2CCC(=O)O` (stereo not shown) [Example 94, 3-(6,8-dichloro-2-isopropyl-7-methyl-3-oxo-2,3-dihydrobenzo[1,4]oxazin-4-yl)propionic acid], the IC50 on human URAT1 is under 0.3 µM; at CYP2C9 it was over 50 µM.

Take `CCc1cc(C)c2c(c1)N(CCC(=O)O)C(=O)C(C(C)C)O2` (stereo not shown) [Example 101, 3-(6-ethyl-2-isopropyl-8-methyl-3-oxo-2,3-dihydrobenzo[1,4]oxazin-4-yl)propionic acid]: the concentration for half-maximal inhibition (IC50) on human URAT1 was under 0.3 µM; on CYP2C9 it was over 50 µM.

Regarding `Cc1ccc2c(c1)OC(C(C)C)CN2C(=O)/C=C/C(=O)O` (stereo not shown) [Example 56, (E)-4-(2-isopropyl-7-methyl-2,3-dihydrobenzo[1,4]oxazin-4-yl)-4-oxo-2-butenoic acid], the IC50 on human URAT1 was at least 3 µM; on CYP2C9, over 50 µM.

With `CC(C)c1cccc2c1OC(C(C)C)CN2C(=O)/C=C\C(=O)O` (stereo not shown) [Example 37, (Z)-4-(2,8-diisopropyl-2,3-dihydrobenzo[1,4]oxazin-4-yl)-4-oxo-2-butenoic acid], the results for the concentration for half-maximal inhibition (IC50) at human URAT1 and at CYP2C9 were 0.3 to 3 µM and over 50 µM, respectively.

With `Cc1cc(Cl)cc2c1O[C@@H](C(C)C)C(=O)N2CCC(=O)O` [Example 110, 3-((S)-6-chloro-2-isopropyl-8-methyl-3-oxo-2,3-dihydrobenzo[1,4]oxazin-4-yl)propionic acid], the concentration for half-maximal inhibition (IC50) is 0.3 to 3 µM on human URAT1 and over 50 µM at CYP2C9.

Take `CC(C)c1cccc2c1OC(C(C)C)C(=S)N2CC(=O)O` (stereo not shown) [Comparative Example, reference compound]: the concentration for half-maximal inhibition (IC50) on CYP2C9 stood at 16 µM.

Consider `CC(C)C1Oc2c(cccc2C(C)(C)C)N(CCC(=O)O)C1=O` (stereo not shown) [Example 46, 3-(8-tert-butyl-2-isopropyl-3-oxo-2,3-dihydrobenzo[1,4]oxazin-4-yl)propionic acid], for which the IC50 on human URAT1 was at least 3 µM.

Regarding `O=C(O)/C=C/C(=O)N1CC(c2ccccc2)Oc2cc(Cl)ccc21` (stereo not shown) [Example 70, (E)-4-(7-chloro-2-phenyl-2,3-dihydrobenzo[1,4]oxazin-4-yl)-4-oxo-2-butenoic acid], at human URAT1, the half-maximal inhibitory concentration (IC50) was at least 3 µM.

Consider `CCC1Oc2c(C(C)C)cccc2N(CCC(=O)O)C1=O` (stereo not shown) [Example 40, 3-(2-ethyl-8-isopropyl-3-oxo-2,3-dihydrobenzo[1,4]oxazin-4-yl)propionic acid], for which the IC50 on human URAT1 lay in the range of 0.3 to 3 µM.

Take `Cc1ccc2c(c1)N(CCC(=O)O)C(=O)C(c1ccccc1)O2` (stereo not shown) [Example 75, 3-(6-methyl-3-oxo-2-phenyl-2,3-dihydrobenzo[1,4]oxazin-4-yl)propionic acid]: the 50% inhibitory concentration (IC50) at human URAT1 fell in the range of 0.3 to 3 µM.

As to `O=C(O)/C=C\C(=O)N1CCOc2ccccc21` [Example 25, (Z)-4-(2,3-dihydrobenzo[1,4]oxazin-4-yl)-4-oxo-2-butenoic acid], the IC50 at human URAT1 was at least 3 µM.

On to `CC(C)C1Oc2cc(Cl)ccc2N(CCC(=O)O)C1=O` (stereo not shown) [Example 62, 3-(7-chloro-2-isopropyl-3-oxo-2,3-dihydrobenzo[1,4]oxazin-4-yl)propionic acid], for which the IC50 on human URAT1 lay in the range of 0.3 to 3 µM.

Take `CC(C)c1cccc2c1OC(C(C)C)CN2C(=O)CCC(=O)O` (stereo not shown) [Example 21, 4-(2,8-diisopropyl-2,3-dihydrobenzo[1,4]oxazin-4-yl)-4-oxobutyric acid]: the IC50 at human URAT1 is at least 3 µM.

In the case of `CC(C)C1Oc2ccccc2N(CC(=O)O)C1=S` (stereo not shown) [Example 13, (2-isopropyl-3-thioxo-2,3-dihydrobenzo[1,4]oxazin-4-yl)acetic acid], the half-inhibitory concentration (IC50) on human URAT1 was at least 3 µM.

For `CC(C)c1cccc2c1OCC(=S)N2CC(=O)O` [Example 15, (8-isopropyl-3-thioxo-2,3-dihydrobenzo[1,4]oxazin-4-yl)acetic acid], at human URAT1, the IC50 is at least 3 µM.

With `CC(C)c1cccc2c1O[C@H](C(C)C)C(=S)N2CC(=O)O` [Example 8, ((R)-2,8-diisopropyl-3-thioxo-2,3-dihydrobenzo[1,4]oxazin-4-yl)acetic acid], on human URAT1, the IC50 fell in the range of 0.3 to 3 µM.

In the case of `CC(C)C1Oc2ccc([N+](=O)[O-])cc2N(CCC(=O)O)C1=O` (stereo not shown) [Example 96, 3-(2-isopropyl-6-nitro-3-oxo-2,3-dihydrobenzo[1,4]oxazin-4-yl)propionic acid], on human URAT1, the IC50 lay within 0.3 to 3 µM.

As for `O=C(O)/C=C/C(=O)N1CC(c2ccccc2)Oc2ccc(Cl)cc21` (stereo not shown) [Example 71, (E)-4-(6-chloro-2-phenyl-2,3-dihydrobenzo[1,4]oxazin-4-yl)-4-oxo-2-butenoic acid], the half-inhibitory concentration (IC50) on human URAT1 was at least 3 µM.

For the compound `CC(C)C1Oc2c(C3CCCCC3)cccc2N(CCC(=O)O)C1=O` (stereo not shown) [Example 50, 3-(8-cyclohexyl-2-isopropyl-3-oxo-2,3-dihydrobenzo[1,4]oxazin-4-yl)propionic acid], on human URAT1, the IC50 was at least 3 µM.

Regarding `CCC1CN(C(=O)/C=C/C(=O)O)c2cccc(C(C)C)c2O1` (stereo not shown) [Example 67, (E)-4-(2-ethyl-8-isopropyl-2,3-dihydrobenzo[1,4]oxazin-4-yl)-4-oxo-2-butenoic acid], the IC50 on human URAT1 is 0.3 to 3 µM.

Turning to `CC(C)c1cccc2c1OC(C)(C)C(=O)N2CC(=O)O` [Example 34, (8-isopropyl-2,2-dimethyl-3-oxo-2,3-dihydrobenzo[1,4]oxazin-4-yl)acetic acid], at human URAT1, the 50% inhibitory concentration (IC50) is at least 3 µM.

Take `Cc1cc(C)c2c(c1)N(CCC(=O)O)C(=O)C(C)(C)O2` [Example 89, 3-(2,2,6,8-tetramethyl-3-oxo-2,3-dihydrobenzo[1,4]oxazin-4-yl)propionic acid]: the concentration for half-maximal inhibition (IC50) at human URAT1 is at least 3 µM.

Regarding `CCc1cccc2c1OC(C(C)C)C(=O)N2CCC(=O)O` (stereo not shown) [Example 53, 3-(8-ethyl-2-isopropyl-3-oxo-2,3-dihydrobenzo[1,4]oxazin-4-yl)propionic acid], on human URAT1, the IC50 lay within 0.3 to 3 µM.

For `CCCCC1Oc2c(C)cc(C)cc2N(CCC(=O)O)C1=O` (stereo not shown) [Example 93, 3-(2-butyl-6,8-dimethyl-3-oxo-2,3-dihydrobenzo[1,4]oxazin-4-yl)propionic acid], at human URAT1, the IC50 lay in the range of 0.3 to 3 µM.

As a reminder, the IC50 is the concentration that gives 50% inhibition.
